Test results taken from patent publication US20210212320A1, “FRUIT THINNING METHOD WITH 1-AMINOCYCLOPROPANE CARBOXYLIC ACID” (Valent BioSciences LLC, priority 2021, published 2021).

Assays:
[1] = test system: Sugar May peaches; experiment: Effect of ACC concentration on fruit set of Sugar May peaches, applied at full bloom; format: in vivo, peach
Excerpt: (§1) Effect of ACC concentration on fruit set (number of fruit per shoot) of Sugar May peaches and Sweet Dream peaches when applied at full bloom

[2] = test system: Sweet Dream peaches; experiment: Effect of ACC concentration on fruit set of Sweet Dream peaches, applied at full bloom; format: in vivo, peach
Excerpt: as §1

[3] = test system: Gala apples; experiment: Effect of ACC concentration on modulating fruit set of Gala apples; format: in vivo, apple
Excerpt: Effect of ACC concentration on modulating fruit set (number of fruit per 100 flower clusters) of Gala apples when applied at petal fall (BBCH67), 10 mm fruit diameter, or 20 mm fruit diameter.

SMILES: NC1(C(=O)O)CC1 [ACC, 1-aminocyclopropane carboxylic acid]
- Number of Fruit Per Shoot (fruit set) ([1]; ACC 300 parts per million): 0.7 fruit per shoot
- Number of Fruit Per Shoot (fruit set) ([1]; ACC 600 parts per million): 0.3 fruit per shoot
- Number of Fruit Per Shoot (fruit set) ([1]; ACC 900 parts per million): 0.1 fruit per shoot
- Number of Fruit Per Shoot (fruit set) ([2]; ACC 300 parts per million): 12 fruit per shoot
- Number of Fruit Per Shoot (fruit set) ([2]; ACC 600 parts per million): 9 fruit per shoot
- Number of Fruit Per Shoot (fruit set) ([2]; ACC 900 parts per million): 6 fruit per shoot
- fruit set (number of fruit per 100 flower clusters) ([3]; ACC 224 parts per million, applied at 10 mm fruit diameter): 125 fruit per 100 flower clusters
- fruit set (number of fruit per 100 flower clusters) ([3]; ACC 224 parts per million, applied at 20 mm fruit diameter): 89 fruit per 100 flower clusters
- fruit set (number of fruit per 100 flower clusters) ([3]; ACC 224 parts per million, applied at petal fall (BBCH67)): 117 fruit per 100 flower clusters
- fruit set (number of fruit per 100 flower clusters) ([3]; ACC 450 parts per million, applied at 10 mm fruit diameter): 108 fruit per 100 flower clusters
- fruit set (number of fruit per 100 flower clusters) ([3]; ACC 450 parts per million, applied at 20 mm fruit diameter): 46 fruit per 100 flower clusters
- fruit set (number of fruit per 100 flower clusters) ([3]; ACC 450 parts per million, applied at petal fall (BBCH67)): 96 fruit per 100 flower clusters
- fruit set (number of fruit per 100 flower clusters) ([3]; ACC 900 parts per million, applied at 10 mm fruit diameter): 63 fruit per 100 flower clusters
- fruit set (number of fruit per 100 flower clusters) ([3]; ACC 900 parts per million, applied at 20 mm fruit diameter): 12 fruit per 100 flower clusters
- fruit set (number of fruit per 100 flower clusters) ([3]; ACC 900 parts per million, applied at petal fall (BBCH67)): 72 fruit per 100 flower clusters
